Measurements from PMC7417771, “Thiol-ene Enabled Chemical Synthesis of Truncated S-Lipidated Teixobactin Analogs” (Frontiers in Chemistry, 2020).
Values after ≈ are worked out from the molar mass of the structure shown. Read-outs that look alike come from different tables or passages of the source. Positions of bridges follow the written chain, without caps; N, C: chain ends. Non-standard residues stand in square brackets, D forms with d. Residues, ends and D or L forms follow the SMILES beside them. *: point of attachment. Ethyl(2-palmitoyloxy) = CCCCCCCCCCCCCCCC(=O)OCC*; Ethyl(2-butanoyloxy) = CCCC(=O)OCC*; Ethyl(2-OBz) = O=C(OCC*)c1ccccc1; Lauroyl = CCCCCCCCCCCC(=O)*; X1 = CCCCCCCCCCCC(=O)OCC*; X3 = CCCCCCCC(=O)OCC*; X2 = CCCCCC(=O)OCC*; Mpa = O=C(O)CCS

Columns and labels:
[1] = system: Staphylococcus aureus ATCC 29213; assay type: cell-based
Procedure: (§1) Microwave irradiated reactions were performed in a CEM (Matthews, NC) Discover SP, Model 908010 reactor. Dibenzofulvene measurements for the Fmoc release assay was performed in a Shimadzu (Kyoto, Japan) UV-1280 spectrophotometer at 290 nm. Analytical RP-HPLC was used to analyse final compounds and performed on a Dionex (Sunnyvale, CA) UltiMate 3000 system using a Waters (Milford, MA) Xterra MS C18 (5 μm 4.6 × 150 mm) column, and Chromeleon software was used for data processing. Buffer A: 0.1% (v/v) TFA in H2O; buffer B: 0.1% (v/v) TFA in MeCN. LC-MS was performed on an Agilent (Santa Clara, CA) 1260 Infinity with UV absorbance at λ = 214 nm equipped with an Agilent 6120 Quadrupole LC-MS using an Agilent Zorbax 300SB-C3 column (3.5 μm, 3.0 × 150 mm) column with a linear gradient of 5 – 95% B (ca. 3% B/min) at r.t., with a flow rate of 0.3 mL/min. Data processing was carried out by Agilent OpenLAB software. Buffer A: 0.1% (v/v) formic acid in H2O; buffer B: 0.1% (v/v) formic acid in MeCN. Crude peptides were purified on Dionex UltiMate 3000 preparative HPLC using Agilent Zorbax 300SB-C18 column (5 μm, 9.4 × 250 mm) and Chromeleon software was used for data processing. Ultraviolet irradiation was carried out using Spectroline (Westbury, NY) hand-held lamp EA-160/FA, 6W integrally filtered tube at 50 Hz, 0.17 A and λ = 365 nm. Biological assays were carried out inside a Thermo Fisher (Waltham, MA) HERAsafe KSP 12 biological safety cabinet on 96-well plates obtained from MediRay (Auckland, New Zealand). Mueller Hinton (MH) broth and Staphylococcus aureus ATCC 29213 was obtained from Thermo Fisher. Media and bacteria were incubated in N-Biotek (Geyonggi, South Korea) NB205L shaker.
Staphylococcus aureus ATCC 29213 was grown in non-cation adjusted Mueller Hinton (MH) broth at 37 °C with shaking (200 rpm). […] Overnight cultures of bacteria were diluted in fresh MH before adding 50 µL of inoculum to each well of the MIC plate, to achieve a final volume of 100 µL with a uniform CFU/ml of ~5 x10^5 in each well. Plates were incubated at 37 °C with shaking for 24 h before determining the MIC.

[2] = Analytical RP-HPLC retention time as measure of hydrophobicity; assay type: physicochemical; conditions: for RP-HPLC column retention time tR: chromatographic, analytical RP-HPLC, Waters Xterra MS C18 5 μm 4.6 × 150 mm, buffer A 0.1% TFA in H2O, buffer B 0.1% TFA in MeCN, used as measure of hydrophobicity; for Δt, retention time difference to lipobactin 3: tR of the compound minus tR of 3, same RP-HPLC C18 system; for Hydrophobicity relative to lipobactin 3 as judged by RP-HPLC retention time: in words
Procedure: We evaluated the antibiotic activity of the analogs 8a–8f against S. aureus using lipobactin 3 as a reference compound. Lipobactin 3 was prepared using Fmoc-SPPS as described by the Nowick group (Yang H. et al., [2016]) and purified to 95% (Yang H. et al., [2016]). […] To examine the reasons for the lack of bioactivity, the hydrophobicity of the S-lipidated teixobactin analogs as a function of lipid tail length were examined by analyses of their RP-HPLC retention times and compared to that of lipobactin 3 (Table 1).
as §1

[3] = system: S. epidermidis ATCC 14990; conditions: cited from earlier work; for MIC (S. epidermidis): Figure 1, ref Yang H. et al. (2016), Girt et al. (2018), Zong et al. (2018)
Procedure: Figure 1 Structures of teixobactin 1 and teixobactin analogs; Arg^10-teixobactin 2, lipobactin 3, and Lys^10-farnesylbactin 4. Examples of most relevant MICs from the literature are shown above each structure. Yang H. et al. ([2016]), Girt et al. ([2018]), Zong et al. ([2018]) The End^10, Arg^10 and Lys^10 substitutions (red) and the lipid moieties of lipobactin 3 and farnesylbactin 4 (blue) are highlighted. […] Lipobactin 3 was prepared using Fmoc-SPPS as described by the Nowick group (Yang H. et al., [2016]) and purified to 95% (Yang H. et al., [2016]). […] Despite the distinct similarity to lipobactin 3, in which hydrophobic residues 1–5 of teixobactin are also replaced with ...

[4] = system: Gram-positive bacterial species; conditions: range over species, ref Yang H. et al., 2016, cited from earlier work
Procedure: Despite this substitution, the L-Arg^10-teixobactin analog maintained excellent, albeit reduced potency, with MIC values ranging 1–4 μg/mL across a number of Gram-positive bacterial species (Yang H. et al., [2016]; Zong et al., [2018]). The rationale for this substitution being that the positive charge from the guanidinium group was the moiety responsible for eliciting antibacterial activity.

[5] = system: methicillin-resistant Staphylococcus aureus (MRSA); conditions: cited from earlier work
Source text: Nature has historically been the primary source of medicinally important antibiotics (Moloney, [2016]). By screening soil microorganisms, Ling et al. discovered the novel antimicrobial peptide (AMP) teixobactin (1, Figure 1), isolated from bacterium Eleftheria terrae (Ling et al., [2015]). […] Crucially, resistance in S. aureus was not induced by exposure to sub-lethal doses of teixobactin. The lack of resistance wa ... || Figure 1 Structures of teixobactin 1 and teixobactin analogs; Arg^10-teixobactin 2, lipobactin 3, and Lys^10-farnesylbactin 4. Examples of most relevant MICs from the literature are shown above each structure. Yang H. et al. ([2016]), Girt et al. ([2018]), Zong et al. ([2018]) The End^10, Arg^10 and Lys^10 substitutions (red) and the lipid moieties of lipobactin 3 and farnesylbactin 4 (blue) are highlighted.

[6] = Figure 1, ref Yang H. et al. (2016), Girt et al. (2018), Zong et al. (2018)

**Q.** Which results are given for `CCCCCCCCCCCC(=O)N[C@H](C(=O)N[C@@H](CO)C(=O)N[C@H]1C(=O)N[C@@H](C)C(=O)N[C@@H](CCCNC(=N)N)C(=O)N[C@@H]([C@@H](C)CC)C(=O)O[C@H]1C)[C@@H](C)CC` [Compound 3, lipobactin, reference compound] (Lauroyl-IS[dT]ARI; ester 3-C)?
**A.** MIC, S. aureus ATCC 29213 ([1]; ATCC 29213, 24 h): 8 µM (≈ 6.59 µg/mL); MIC, S. aureus ATCC 29213, converted to mass concentration ([1]; ATCC 29213, 24 h): ca. 6.5 μg/mL; RP-HPLC column retention time tR [2]: 20.38 min; Δt, retention time difference to lipobactin 3 [2]: 0 min; MIC (S. epidermidis) [3]: 4 µg/mL (≈ 4.85 µM); MIC against S. epidermidis ATCC 14990 ([3]; reported MIC, ref Yang H. et al., 2016): 4 µg/mL (≈ 4.85 µM); MIC across a range of Gram-positive bacterial species [4]: 4 to 8 µg/mL

**Q.** Which “MIC, S. aureus ATCC 29213” value ([1]; non-cation adjusted Mueller Hinton broth, two-fold dilution 128 to 0.0625 µM, ~5 x10^5 CFU/ml, 37 °C with shaking, 24 h, lowest concentration at which growth did not occur) does the source give for `CC[C@H](C)[C@H](NC(=O)CCSCCOC(=O)c1ccccc1)C(=O)N[C@@H](CO)C(=O)N[C@H]1C(=O)N[C@@H](C)C(=O)N[C@@H](CCCNC(=N)N)C(=O)N[C@@H]([C@@H](C)CC)C(=O)O[C@H]1C` [Compound 8f] ([Mpa](Ethyl(2-OBz))IS[dT]ARI; ester 4-C) here?
**A.** > 128 µM

**Q.** And the “RP-HPLC column retention time tR” value [2]?
**A.** 15.93 min

**Q.** And the “Δt, retention time difference to lipobactin 3” value (shortened to “Δt, retention time difference”) [2]?
**A.** -4.5 min

**Q.** Which “MIC, S. aureus ATCC 29213” value ([1]; ATCC 29213, 24 h) does the source give for `CCCCCCCC(=O)OCCSCCC(=O)N[C@H](C(=O)N[C@@H](CO)C(=O)N[C@H]1C(=O)N[C@@H](C)C(=O)N[C@@H](CCCNC(=N)N)C(=O)N[C@@H]([C@@H](C)CC)C(=O)O[C@H]1C)[C@@H](C)CC` [Compound 8c] ([Mpa](X3)IS[dT]ARI; ester 4-C) here?
**A.** > 128 µM

**Q.** And the “RP-HPLC column retention time tR” value [2]?
**A.** 18.89 min

**Q.** And the “Δt, retention time difference” value [2]?
**A.** -1.5 min

**Q.** With `CCCCCCCCCCCCCCCC(=O)OCCSCCC(=O)N[C@H](C(=O)N[C@@H](CO)C(=O)N[C@H]1C(=O)N[C@@H](C)C(=O)N[C@@H](CCCNC(=N)N)C(=O)N[C@@H]([C@@H](C)CC)C(=O)O[C@H]1C)[C@@H](C)CC` [Compound 8e] ([Mpa](Ethyl(2-palmitoyloxy))IS[dT]ARI; ester 4-C) as the molecule, how does the “MIC, S. aureus ATCC 29213” value ([1]; ATCC 29213, 24 h) read?
**A.** > 128 µM

**Q.** What about the “RP-HPLC column retention time tR” value [2] of the same molecule?
**A.** 27.98 min

**Q.** And the “Hydrophobicity relative to lipobactin 3 as judged by RP-HPLC retention time” value [2]?
**A.** more hydrophobic than 3

**Q.** What about the “Δt, retention time difference” value [2] of the same molecule?
**A.** +7.6 min

**Q.** With `CCCCCC(=O)OCCSCCC(=O)N[C@H](C(=O)N[C@@H](CO)C(=O)N[C@H]1C(=O)N[C@@H](C)C(=O)N[C@@H](CCCNC(=N)N)C(=O)N[C@@H]([C@@H](C)CC)C(=O)O[C@H]1C)[C@@H](C)CC` [Compound 8b] ([Mpa](X2)IS[dT]ARI; ester 4-C) as the molecule, how does the “MIC, S. aureus ATCC 29213” value ([1]; ATCC 29213, 24 h) read?
**A.** > 128 µM

**Q.** And the “RP-HPLC column retention time tR” value [2]?
**A.** 16.88 min

**Q.** What about the “Hydrophobicity relative to lipobactin 3 as judged by RP-HPLC retention time” value [2] of the same molecule?
**A.** more hydrophilic than 3

**Q.** What about the “Δt, retention time difference” value [2] of the same molecule?
**A.** -3.5 min

**Q.** Which results are given for `CCCC(=O)OCCSCCC(=O)N[C@H](C(=O)N[C@@H](CO)C(=O)N[C@H]1C(=O)N[C@@H](C)C(=O)N[C@@H](CCCNC(=N)N)C(=O)N[C@@H]([C@@H](C)CC)C(=O)O[C@H]1C)[C@@H](C)CC` [Compound 8a] ([Mpa](Ethyl(2-butanoyloxy))IS[dT]ARI; ester 4-C)?
**A.** MIC, S. aureus ATCC 29213 ([1]; ATCC 29213, 24 h): > 128 µM; RP-HPLC column retention time tR [2]: 14.98 min; Hydrophobicity relative to lipobactin 3 as judged by RP-HPLC retention time [2]: more hydrophilic than 3; Δt, retention time difference to lipobactin 3 [2]: -5.4 min

**Q.** Which “MIC, S. aureus ATCC 29213” value ([1]; ATCC 29213, 24 h) does the source give for `CCCCCCCCCCCC(=O)OCCSCCC(=O)N[C@H](C(=O)N[C@@H](CO)C(=O)N[C@H]1C(=O)N[C@@H](C)C(=O)N[C@@H](CCCNC(=N)N)C(=O)N[C@@H]([C@@H](C)CC)C(=O)O[C@H]1C)[C@@H](C)CC` [Compound 8d] ([Mpa](X1)IS[dT]ARI; ester 4-C) here?
**A.** > 128 µM

**Q.** And the “RP-HPLC column retention time tR” value [2]?
**A.** 23.21 min

**Q.** And the “Hydrophobicity relative to lipobactin 3 as judged by RP-HPLC retention time” value [2]?
**A.** more hydrophobic than 3

**Q.** What about the “Δt, retention time difference” value [2] of the same molecule?
**A.** +2.8 min

**Q.** With L-Arg^10-teixobactin [Compound 2] as the molecule, how does the “MIC (MRSA)” value [5, 6] read?
**A.** 2 µg/mL

**Q.** And the “MIC (S. epidermidis)” value [3]?
**A.** 1 µg/mL

**Q.** What about the “MIC values across a number of Gram-positive bacterial species” value ([4]; Zong et al., 2018) of the same molecule?
**A.** 1 to 4 µg/mL

**Q.** What about the “MIC across a range of Gram-positive bacterial species” value [4] of the same molecule?
**A.** 1 to 4 µg/mL

**Q.** For teixobactin [Compound 1], which “MIC (MRSA)” value [5, 6] is on record?
**A.** 0.25 µg/mL

**Q.** And the “MIC (MRSA)” value ([5]; ref Ling et al., 2015)?
**A.** 0.25 µg/mL
